Consider 4 molecules from patent publication US5783700A, “Quinolic acid derivatives” (priority 1997, dated 1998).

Series [1] has as its system MES induced seizures. Put plainly: Maximal electroshock (MES) anticonvulsant test, ip. Format: in vivo, male Carworth Farms no. 1 mice. On the procedure: (§1) Biological Testing--Compounds were screened for anticonvulsant activity in male Carworth Farms no. 1 mice. The maximal electroshock (MES), subcutaneous Metrazol (pentylenetetrazole) (Met), and threshold tonic extension (TTE) tests were used to evaluate compounds for anticonvulsive activity. A rotorod protocol was used to determine neurotoxicity. Solutions for injection were prepared in 30% polyethylene glycol 400. Except for the TTE tests, animals were dosed ip at two different time periods: either 30 min. or 4 hr prior to testing. At each time period, three groups of four mice were tested at the following dose levels: 30, 100, and 300 mg/kg. This treatment protocol was followed for MES, Met, and rotorod testing.
Maximal electroshock (MES) induced seizures were elicited with a 60 cycle alternating current of 50 mA intensity (five to seven times the intensity necessary to evoke minimal electroshock threshold seizures). Current was delivered via corneal electrodes for 0.2 sec. A drop of 0.9% saline was instilled in the eye prior to application of the electrodes. Abolition of the hindlimb tonic extension component of the seizure was defined as protection.

Series [2] in a line: Rotorod test for drug induced neurological deficit (neurotoxicity), ip. Format: in vivo, male Carworth Farms no. 1 mice. Conditions: neurotoxicity, 30 min or 4 hr, 30, 100, 300 mg/kg, bracketed = maximum ineffective dose (given as >), unbracketed = effective (neurotoxic) dose (=). On the procedure: as §1
Animals were tested for drug induced neurological deficit using a rotorod. Either 30 min. or 4 hr after treatment, the animal was placed on a 1-inch diameter knurled plastic rod rotating at 6 rpm. Neurological deficit was defined as the failure of the animal to remain on the rod for 1 min.

Series [3] has as its system NMDA receptor glycine binding. Conditions: cited from earlier work.
Series [4] concerns [^3 H]-MK 801 binding. Conditions: cited from earlier work.
The test system of series [5] is recognition site presumed to be located within the ion channel of the receptor complex. Conditions: cited from earlier work.
Series [6] addresses glycine binding site on the NMDA receptor. Particulars: [^3 H]-labeled ligand; cited from earlier work.

Structures are written as SMILES.

As for `CN(C)C(=O)Nc1cc(C(=O)O)nc2cc(Cl)cc(Cl)c12` [Compound 5], the “MES activity” value in series [1] is “demonstrated activity”. Further, the “Rotorod: effective or [maximum ineffective] intraperitoneal dose” value in series [2] is on record as over 300 mg/kg.
As for `O=C(O)c1cc(O)c2ccc(Cl)cc2n1` [7-chlorokynurenic acid], in series [3], the “inhibition of glycine binding” value is “competitive inhibitor of glycine binding”. Also, the “effect at 1 uM on [^3 H]-MK 801 binding” value in series [4] (1 uM) is recorded as “little effect”. The IC50 in series [4] ([^3 H]-MK 801, depending on brain region, read-out: IC50 (inhibition concentration)) was 30 to 40 µM. In addition, in series [5], the “effect on binding of phencyclidine-like compounds” value is recorded as “decrease binding”.
For `COc1cccc(N(C(=O)Nc2cc(C(=O)O)nc3cc(Cl)cc(Cl)c23)c2ccccc2)c1` [Compound 12], the “MES activity” value in series [1] is “demonstrated activity”. The “Rotorod: effective or [maximum ineffective] intraperitoneal dose” value in series [2] is over 300 mg/kg.
For `O=C(O)c1cc(O)c2c(Cl)cc(Cl)cc2n1` [[^3 H]-5,7-dichlorokynurenic acid], the Kd in series [6] is 0.029 µM.
